The results in this text go back to patent US9914730B2, “Azaquinazoline inhibitors of Atypical protein Kinase C” (Ignyta, Inc., priority 2012, dated 2018).

Broadly, the IC50 is the concentration that inhibits the measured activity by half.

The target in the experiment is T1, full-length human PKCι (Homo sapiens, UniProt P41743).
T1 construct: Recombinant, full-length human PKCι expressed in Sf21 insect cells is also commercially available; purchased; host or cells: Sf21 insect cells
T1 sequence (P41743 1-596): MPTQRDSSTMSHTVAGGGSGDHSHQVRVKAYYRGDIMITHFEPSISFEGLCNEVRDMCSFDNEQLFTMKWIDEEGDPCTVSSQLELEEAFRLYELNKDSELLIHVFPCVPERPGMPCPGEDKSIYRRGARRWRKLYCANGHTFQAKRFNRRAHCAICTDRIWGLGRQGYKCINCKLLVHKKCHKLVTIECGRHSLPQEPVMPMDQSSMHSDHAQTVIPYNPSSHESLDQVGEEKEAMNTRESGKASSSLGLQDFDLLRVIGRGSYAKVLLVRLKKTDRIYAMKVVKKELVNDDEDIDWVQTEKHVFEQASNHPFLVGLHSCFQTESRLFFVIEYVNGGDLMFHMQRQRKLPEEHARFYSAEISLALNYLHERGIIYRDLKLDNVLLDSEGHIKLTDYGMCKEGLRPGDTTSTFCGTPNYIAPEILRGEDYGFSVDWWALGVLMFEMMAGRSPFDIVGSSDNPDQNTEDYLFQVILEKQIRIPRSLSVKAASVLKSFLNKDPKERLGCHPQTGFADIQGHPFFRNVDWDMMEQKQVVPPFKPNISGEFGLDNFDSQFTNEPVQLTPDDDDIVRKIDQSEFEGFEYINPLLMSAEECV
The experiment is described as follows: PKCι IC50 IMAP assay, full-length PKCι at 150 μM ATP. The class given is biochemical. To be noted: read-out: IC50 in IMAP assay against full length PKCi at 150 μM ATP. In short, it runs like this: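 IC50 from IMAP FP (ex 485/em 530 nm) after 60 min room-temperature reaction in pH 7.5 tris buffer with 9 mM MgCl2 and 0.9 mM DTT. Enzyme: full-length Sf21-expressed PKCι (~15 pM); ATP 150 μM, five times KM^APP; FAM-labelled peptide 100 nM; DMSO 4%.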

In the case of `C[C@H]1CN(c2nc(-c3ccnc(Nc4nc(F)cc(F)c4F)c3)nc3cncc(C4CC4)c23)CCN1` [Example 2004, {4-[5-Cyclopropyl-4-((S)-3-methyl-piperazin-1-yl)-pyrido[3,4-d]pyrimidin-2-yl]-pyridin-2-yl}-(3,4,6-trifluoro-pyridin-2-yl)-amine], the half-inhibitory concentration (IC50) is less than 100 nM.

With `COC(=O)[C@@H]1C[C@H](Nc2nc(-c3ccncc3)nc3cnccc23)CN1` [Example 39, methyl (2S,4S)-4-{[2-(pyridin-4-yl)pyrido[3,4-d]-pyrimidin-4-yl]-amino}pyrrolidine-2-carboxylate], the IC50 lay in the range of 10000 to 40000 nM. As for `COc1cncc2nc(-c3ccnc(Nc4ccccc4)c3)nc(N3CCC(O)C(O)C3)c12` (single isomer, unassigned) [Example 457, (3R,4R)-1-[5-Methoxy-2-(2-phenylamino-pyridin-4-yl)-pyrido[3,4-d]pyrimidin-4-yl]-piperidine-3,4-diol or (3S,4S)-1-[5-Methoxy-2-(2-phenylamino-pyridin-4-yl)-pyrido[3,4-d]pyrimidin-4-yl]-piperidine-3,4-diol], the IC50 lay in the range of 100 to 1000 nM. For `N[C@H](CNc1nc(-c2ccncc2)nc2c(-c3cccc4ccoc34)nccc12)Cc1ccccc1` [Example 110, N-[(2S)-2-amino-3-phenylpropyl]-8-(1-benzofuran-7-yl)-2-(pyridin-4-yl)pyrido[3,4-d]pyrimidin-4-amine], the IC50 fell in the range of 100 to 1000 nM. In the case of `CN1CCN(c2cccc(Nc3cc(-c4nc(N5CCC(O)C(O)C5)c5c(C6CC6)cncc5n4)ccn3)c2)CC1` (single isomer, unassigned) [Example 751, (3R,4S or 3R,4S)-1-(5-Cyclopropyl-2-{2-[3-(4-methyl-piperazin-1-yl)-phenylamino]-pyridin-4-yl}-pyrido[3,4-d]pyrimidin-4-yl)-piperidine-3,4-diol], the IC50 was less than 100 nM. With `COc1cncc2nc(-c3ccnc(Nc4ccc(N(C)C)cc4)c3)nc(N[C@@H]3CCNC3)c12` [Example 226, N-{4-[5-Methoxy-4-((R)-pyrrolidin-3-ylamino)-pyrido[3,4-d]pyrimidin-2-yl]-pyridin-2-yl}-N′,N′-dimethyl-benzene-1,4-diamine], the IC50 is less than 100 nM. Turning to `COc1cncc2nc(-c3ccnc(Nc4ccccc4F)c3)nc(N3CCNCC3)c12` [Example 206, (2-Fluoro-phenyl)-[4-(5-methoxy-4-piperazin-1-yl-pyrido[3,4-d]pyrimidin-2-yl)-pyridin-2-yl]-amine], the IC50 was less than 100 nM. In the case of `COc1cncc2nc(N3CCOCC3)nc(N3CCNCC3)c12` [Example 1003, 5-Methoxy-2-morpholin-4-yl-4-piperazin-1-yl-pyrido[3,4-d]pyrimidine] it was 100 to 1000 nM. With `Cn1cnc2ccc(Nc3cc(-c4nc(N5CCNCC5)c5c(C6CC6)cncc5n4)ccn3)cc21` [Example 2149, [4-(5-Cyclopropyl-4-piperazin-1-yl-pyrido[3,4-d]pyrimidin-2-yl)-pyridin-2-yl]-(3-methyl-3H-benzoimidazol-5-yl)-amine], the IC50 was less than 100 nM. Consider `COc1cncc2nc(-c3ccnc(Nc4ccccc4)c3)nc(N3CCC(F)(F)CC3)c12` [Example 460, {4-[4-(4,4-Difluoro-piperidin-1-yl)-5-methoxy-pyrido[3,4-d]pyrimidin-2-yl]-pyridin-2-yl}-phenyl-amine], for which the IC50 was in the range of 10000 to 40000 nM. As for `N#Cc1ccnc(Nc2cc(-c3nc(N4CCC(O)CC4)c4c(C5CC5)cncc4n3)ccn2)c1` [Example 482, 2-{4-[5-Cyclopropyl-4-(4-hydroxy-piperidin-1-yl)-pyrido[3,4-d]pyrimidin-2-yl]-pyridin-2-ylamino}-isonicotinonitrile], the IC50 is 100 to 1000 nM. `[2H]C1([2H])NC([2H])([2H])C([2H])([2H])N(c2nc(-c3ccnc(Nc4ccccc4)c3)nc3cncc(C4CC4)c23)C1([2H])[2H]` [Example 636, {4-[5-Cyclopropyl-4-(2,2,3,3,5,5,6,6-octadeuterio-piperazin-1-yl)-pyrido[3,4-d]pyrimidin-2-yl]-pyridin-2-yl}-phenyl-amine]: the IC50 is less than 100 nM.
